Test results: paper PMC12504763, “Antiproliferation, 3D-multicellular spheroid and VEGFR-2 inhibitory properties of spiroindolin-2-ones with phosphonate function” (Scientific Reports, 2025)
“And” between values parts separate entries of the source, which are not always exact repeats. Identical values can stand only once. Like-named read-outs stand apart in the source and are kept apart here.

Tests used:
[1] = system: PaCa2 (pancreatic) cancer cell line; assay: 2D-monolayer antiproliferation (MTT) against PaCa2; format: cell-based, human; conditions: for 1/(observed property): 1/observed IC50 (μM), PaCa2; for IC50: Homo sapiens, PaCa-2, MTT, 72 h incubation, PaCa2 pancreatic, read-out: IC50, μM ± SEM PaCa2; for SI (selectivity index) PaCa2: IC50 of RPE1 normal cell/IC50 of PaCa2
[2] = biological target: T1, COX-1 (Ovis aries, UniProt P05979); assay: biochemical; conditions: 3 replicates, read-out: % Inhibition of COX-1 ± SEM
T1 construct: purchased BioVision incorporated USA K548–100
T1 sequence (P05979 25-600): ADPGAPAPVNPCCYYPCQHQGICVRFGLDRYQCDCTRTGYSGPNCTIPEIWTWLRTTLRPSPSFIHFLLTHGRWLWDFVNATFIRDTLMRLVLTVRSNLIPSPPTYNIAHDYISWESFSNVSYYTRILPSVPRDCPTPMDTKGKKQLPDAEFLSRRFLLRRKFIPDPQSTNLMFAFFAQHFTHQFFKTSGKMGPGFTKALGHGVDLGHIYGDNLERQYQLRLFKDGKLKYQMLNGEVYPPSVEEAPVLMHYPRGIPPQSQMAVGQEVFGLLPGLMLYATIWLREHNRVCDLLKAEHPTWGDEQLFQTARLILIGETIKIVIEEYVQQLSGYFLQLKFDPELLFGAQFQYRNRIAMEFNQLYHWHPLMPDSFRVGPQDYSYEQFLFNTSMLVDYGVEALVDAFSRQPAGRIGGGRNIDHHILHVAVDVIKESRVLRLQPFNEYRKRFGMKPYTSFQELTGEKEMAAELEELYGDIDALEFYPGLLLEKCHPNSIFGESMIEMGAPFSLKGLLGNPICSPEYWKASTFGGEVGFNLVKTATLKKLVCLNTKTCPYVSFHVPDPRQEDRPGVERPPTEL

[3] = biological target: T2, VEGFR-2 (Homo sapiens, UniProt P35968); assay: cell-based; format: cell-based; conditions: for inhibition at 10 µM: PaCa-2, PaCa2; for VEGFR-2 pg/mL ± SEM PaCa2: at 10 μM, control 326.80 ± 1.9
T2 construct: endogenous in cells; host or cells: HCT116, PaCa2, MCF7 (human cancer cell lines, ATCC origin)

[4] = system: A549 (lung) cancer cell line; assay: 2D-monolayer antiproliferation (MTT) against A549; format: cell-based, human; conditions: for IC50: Homo sapiens, MTT, 72 h incubation, A549 lung, read-out: IC50, μM ± SEM A549; for SI (selectivity index) A549: IC50 of RPE1 normal cell/IC50 of A549
[5] = system: HCT116 (colon) cancer cell line; assay: 2D-monolayer antiproliferation (MTT) against HCT116; format: cell-based, human; conditions: for IC50: Homo sapiens, HCT-116; for SI (selectivity index) HCT116: IC50 of RPE1 normal cell/IC50 of HCT116
[6] = biological target: T2, VEGFR-2; assay: cell-based; format: cell-based; conditions: for inhibition at 10 µM: HCT-116, HCT116; for VEGFR-2 pg/mL ± SEM HCT116: at 10 μM, control 317.80 ± 3.5
[7] = system: TNF-α; assay: TNF-α inhibitory properties (ELISA), HCT116 cell lysate; format: cell-based, human; conditions: at 10 μM; for TNF-α pg/mL (± SEM) HCT116: control 95.74 ± 0.5
[8] = system: RPE1 (normal human immortalized retinal pigment epithelial cell line); assay: cells; format: cell-based; conditions: Homo sapiens, RPE-1; MTT, normal RPE1 cell; read-out: IC50, μM ± SEM RPE1
[9] = system: MCF7 (breast) cancer cell line; assay: 2D-monolayer antiproliferation (MTT) against MCF7; format: cell-based, human; conditions: for IC50: Homo sapiens, MTT, 72 h incubation, MCF7 breast, read-out: IC50, μM ± SEM MCF7; for SI (selectivity index) MCF7: IC50 of RPE1 normal cell/IC50 of MCF7
[10] = system: TNF-α; assay: TNF-α inhibitory properties (ELISA), PaCa2 cell lysate; format: cell-based, human; conditions: at 10 μM; for TNF-α pg/mL (± SEM) PaCa2: control 111.8 ± 2.0
[11] = biological target: T2, VEGFR-2; assay: cell-based; format: cell-based; conditions: for inhibition at 10 µM: MCF7; for VEGFR-2 pg/mL ± SEM MCF7: at 10 μM, control 258.70 ± 2.3
[12] = system: TNF-α; assay: TNF-α inhibitory properties (ELISA), MCF7 cell lysate; format: cell-based, human; conditions: at 10 μM; for TNF-α pg/mL (± SEM) MCF7: control 83.26 ± 1.1
[13] = biological target: T3, COX-2 (Homo sapiens, UniProt P35354); assay: biochemical; conditions: for inhibition at 10 µM: 3 replicates, read-out: % Inhibition of COX-2 ± SEM
T3 construct: purchased BioVision incorporated USA K548–100
T3 sequence (P35354 18-604): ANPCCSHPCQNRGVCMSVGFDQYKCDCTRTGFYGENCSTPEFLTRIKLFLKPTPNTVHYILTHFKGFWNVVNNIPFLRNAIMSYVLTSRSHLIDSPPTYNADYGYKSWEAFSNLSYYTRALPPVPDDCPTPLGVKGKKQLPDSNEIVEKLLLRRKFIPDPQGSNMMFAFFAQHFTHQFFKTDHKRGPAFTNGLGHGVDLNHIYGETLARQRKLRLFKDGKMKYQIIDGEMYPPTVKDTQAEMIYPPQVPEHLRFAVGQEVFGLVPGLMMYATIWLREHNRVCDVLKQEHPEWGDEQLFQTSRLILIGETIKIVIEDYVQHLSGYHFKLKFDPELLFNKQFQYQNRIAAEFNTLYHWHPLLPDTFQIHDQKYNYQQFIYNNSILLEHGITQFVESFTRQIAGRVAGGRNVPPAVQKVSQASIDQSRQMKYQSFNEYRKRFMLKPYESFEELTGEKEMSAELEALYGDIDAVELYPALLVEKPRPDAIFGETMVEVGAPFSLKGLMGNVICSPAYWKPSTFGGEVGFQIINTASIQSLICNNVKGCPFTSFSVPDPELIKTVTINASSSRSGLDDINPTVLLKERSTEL

[14] = system: HCT116 3D-spheroid; conditions: HCT116 3D-spheroid at 50 μM, relative to control
[15] = MTT, 72 h incubation, HCT116 colon, read-out: IC50, μM ± SEM HCT116
[16] = log of observed IC50 (μM), HCT116, read-out: Log(observed property) (converted)

T2 sequence (P35968 20-1356): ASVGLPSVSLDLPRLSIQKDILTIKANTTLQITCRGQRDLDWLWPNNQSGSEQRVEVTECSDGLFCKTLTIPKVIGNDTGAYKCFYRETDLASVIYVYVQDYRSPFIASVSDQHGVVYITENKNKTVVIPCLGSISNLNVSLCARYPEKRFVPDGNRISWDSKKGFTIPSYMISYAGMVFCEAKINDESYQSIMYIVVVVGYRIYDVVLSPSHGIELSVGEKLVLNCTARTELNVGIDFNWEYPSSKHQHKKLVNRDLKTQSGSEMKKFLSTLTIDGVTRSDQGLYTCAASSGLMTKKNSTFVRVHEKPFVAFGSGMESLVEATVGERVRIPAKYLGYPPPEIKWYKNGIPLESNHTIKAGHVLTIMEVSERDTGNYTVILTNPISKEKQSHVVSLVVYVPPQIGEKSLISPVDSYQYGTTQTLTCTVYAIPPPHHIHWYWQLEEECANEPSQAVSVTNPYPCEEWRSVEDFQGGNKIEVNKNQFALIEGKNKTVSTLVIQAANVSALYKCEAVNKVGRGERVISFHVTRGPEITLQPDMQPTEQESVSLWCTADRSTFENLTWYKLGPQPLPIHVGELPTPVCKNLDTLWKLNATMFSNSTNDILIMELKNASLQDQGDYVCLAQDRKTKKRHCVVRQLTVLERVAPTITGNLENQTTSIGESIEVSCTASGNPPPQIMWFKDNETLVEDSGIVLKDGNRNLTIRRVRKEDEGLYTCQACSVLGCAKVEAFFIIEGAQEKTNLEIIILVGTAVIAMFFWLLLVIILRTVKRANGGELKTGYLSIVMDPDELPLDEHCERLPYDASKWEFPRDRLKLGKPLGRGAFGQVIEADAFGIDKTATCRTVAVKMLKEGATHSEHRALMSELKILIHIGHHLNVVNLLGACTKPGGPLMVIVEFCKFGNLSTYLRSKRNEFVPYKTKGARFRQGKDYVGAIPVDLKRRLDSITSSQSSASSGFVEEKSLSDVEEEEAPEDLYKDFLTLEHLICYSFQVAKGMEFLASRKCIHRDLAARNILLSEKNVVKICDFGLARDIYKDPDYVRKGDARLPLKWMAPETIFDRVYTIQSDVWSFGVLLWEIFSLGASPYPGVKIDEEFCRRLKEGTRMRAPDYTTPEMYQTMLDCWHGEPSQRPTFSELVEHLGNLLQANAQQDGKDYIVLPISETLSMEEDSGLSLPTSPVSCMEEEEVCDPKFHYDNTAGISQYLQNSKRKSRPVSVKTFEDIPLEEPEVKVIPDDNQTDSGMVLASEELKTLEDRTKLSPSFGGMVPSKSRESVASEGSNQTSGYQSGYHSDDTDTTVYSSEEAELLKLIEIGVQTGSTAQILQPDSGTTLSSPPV

CCOP(=O)(OCC)N1C/C(=C\c2ccccc2)C(=O)C2(C1)C(c1ccccc1)CN(C)C21C(=O)Nc2ccc(C)cc21 (stereo not drawn) [Compound 17d, Diethyl (E)-(5′′-benzylidene-1′,5-dimethyl-2,4′′-dioxo-4′-phenyldispiro[indoline-3,2′-pyrrolidine-3′,3′′-piperidin]-1′′-yl)phosphonate]
1/(observed property) [1]: 0.06423
IC50 [1]: 15.6 ± 0.329 µM
SI (selectivity index) PaCa2 [1]: 1.2
inhibition at 10 µM [2]: 51.8 ± 2.2%
inhibition at 10 µM [3]: 83.7%
VEGFR-2 pg/mL ± SEM PaCa2 [3]: 53.42 ± 0.7 pg/mL
IC50 [4]: 14.6 ± 0.27 µM
SI (selectivity index) A549 [4]: 1.2
IC50 [5, 15]: 9.278 ± 0.084 µM
IC50 [5, 16]: 9.28 µM
SI (selectivity index) HCT116 [5]: 1.9
inhibition at 10 µM [6]: 72.5%
VEGFR-2 pg/mL ± SEM HCT116 [6]: 87.40 ± 1.9 pg/mL
TNF-α % inhibition HCT116 [7]: 1.0%
TNF-α pg/mL (± SEM) HCT116 [7]: 94.80 ± 2.5 pg/mL
IC50 [8]: 17.9 ± 0.945 µM
IC50 [9]: 5.78 ± 0.13 µM
SI (selectivity index) MCF7 [9]: 3.1
TNF-α % inhibition PaCa2 [10]: 7.2%
TNF-α pg/mL (± SEM) PaCa2 [10]: 103.7 ± 4.2 pg/mL
inhibition at 10 µM [11]: 71.9%
VEGFR-2 pg/mL ± SEM MCF7 [11]: 72.80 ± 1.2 pg/mL
TNF-α % inhibition MCF7 [12]: 0.1%
TNF-α pg/mL (± SEM) MCF7 [12]: 83.2 ± 4.5 pg/mL
inhibition at 10 µM [13]: 56.4 ± 1.9%
SI (selectivity index, COX-2/COX-1) ([13]; at 10 μM): 0.82
%CT (± SEM), percentage cytotoxicity [14]: 64.1% and 64.1 ± 7.0%

CCOP(=O)(OCC)N1C/C(=C\c2ccc(Cl)cc2)C(=O)C2(C1)C(c1ccc(Cl)cc1)CN(C)C21C(=O)Nc2ccc(C)cc21 (stereo not drawn) [Compound 17k, Diethyl (E)-(5′′-(4-chlorobenzylidene)-4′-(4-chlorophenyl)-1′,5-dimethyl-2,4′′-dioxodispiro[indoline-3,2′-pyrrolidine-3′,3′′-piperidin]-1′′-yl)phosphonate]
1/(observed property) [1]: 0.1502
IC50 [1]: 6.66 ± 0.095 µM
SI (selectivity index) PaCa2 [1]: 1.2
inhibition at 10 µM [2]: 57.7 ± 1%
inhibition at 10 µM [3]: 76.6%
VEGFR-2 pg/mL ± SEM PaCa2 [3]: 76.40 ± 0.9 pg/mL
IC50 [4]: 6.47 ± 0.385 µM
SI (selectivity index) A549 [4]: 1.3
IC50 [5, 15]: 3.281 ± 0.022 µM
IC50 [5, 16]: 3.28 µM
SI (selectivity index) HCT116 [5]: 2.5
inhibition at 10 µM [6]: 78.7%
VEGFR-2 pg/mL ± SEM HCT116 [6]: 67.80 ± 1.3 pg/mL
TNF-α pg/mL (± SEM) HCT116 [7]: 26.48 ± 1.5 pg/mL
IC50 [8]: 8.15 ± 0.507 µM
IC50 [9]: 4.98 ± 0.095 µM
SI (selectivity index) MCF7 [9]: 1.6
TNF-α pg/mL (± SEM) PaCa2 [10]: 24.3 ± 1.4 pg/mL
inhibition at 10 µM [11]: 66.6%
VEGFR-2 pg/mL ± SEM MCF7 [11]: 86.40 ± 0.5 pg/mL
TNF-α % inhibition MCF7 [12]: 72.6%
TNF-α pg/mL (± SEM) MCF7 [12]: 22.85 ± 1.8 pg/mL
inhibition at 10 µM [13]: 55 ± 1.6%
%CT (± SEM), percentage cytotoxicity [14]: 53.1% and 53.1 ± 2.2%
